Values quoted from earlier work, collected in paper PMC8198792, “Prediction of Anticancer Peptides with High Efficacy and Low Toxicity by Hybrid Model Based on 3D Structure of Peptides” (International Journal of Molecular Sciences, 2021).
Like-named read-outs stand apart in the source and are kept apart here.

Tested on: cancer cell lines
Design: method as in 6 sources, ref CancerPPD [45] and SATPdb ||| ref CancerPPD/SATPdb ||| ref CancerPPD, SATPdb, Swissprot (PDB) ||| ref CancerPPD/SATPdb/Swissprot(PDB) ||| ref CancerPPD / SATPdb ||| ...
Conditions: cited from earlier work
Description: Supplement ijms-22-05630-s001.zip/ACPs(seguence).xlsx, sheet "D1" | column: Activity || Supplement ijms-22-05630-s001.zip/ACPs(seguence).xlsx, sheet "D2" | column: Activity || Supplement ijms-22-05630-s001.zip/ACPs(seguence).xlsx, sheet "D3" | column: Activity || (+ 2 further places)

[1] = ACPs dataset D1, 1 = ACP (positive), 0 = non-ACP (negative), label taken from databases, ref CancerPPD [45] and SATPdb
[2] = ACPs dataset D4 (sheet "D4"), label 1 = ACP, experimentally validated ACPs, ref CancerPPD [45] and SATPdb
[3] = ACPs dataset D5 (sheet "D5"), label 1 = ACP (positive set), sequences with CancerPPD/SATPdb ID, ref CancerPPD, SATPdb
[4] = ACPs dataset sheet D2, 1 = ACP (CancerPPD/SATPdb ID), 0 = non-ACP (Swissprot/PDB ID), ref CancerPPD, SATPdb, Swissprot (PDB)
[5] = ACPs dataset D3 (supplement sheet "D3"), 1 = ACP, 0 = non-ACP, ref CancerPPD [45] and SATPdb
[6] = ACPs dataset D4 (sheet "D4"), label 1 = ACP (CancerPPD ID), 0 = non-ACP (non-anticancer AMP, SATPdb ID), ref CancerPPD [45] and SATPdb
[7] = ACPs dataset D5 (sheet "D5"), label 1 = ACP (positive set), 0 = non-ACP (negative set), ref CancerPPD [45] and SATPdb
[8] = ACPs dataset D3 (sheet "D3"), label 1 = ACP, 0 = non-ACP, ref CancerPPD/SATPdb
[9] = ACPs dataset D4 (sheet "D4"), label 1 = ACP, 0 = non-ACP, ref CancerPPD / SATPdb
[10] = ACPs dataset D5, sheet "D5", label 1 = ACP, 0 = non-ACP, ref CancerPPD [45] and SATPdb
[11] = ACPs dataset D1, label 1 = ACP, 0 = non-ACP (non-anticancer AMPs from SATPdb), ref CancerPPD/SATPdb
[12] = ACPs dataset D2 (supplement ACPs(seguence).xlsx, sheet D2), dataset label 1/0 (ACP / non-ACP), entries identified by Swissprot(PDB ID), ref CancerPPD/SATPdb/Swissprot(PDB)

Substance	Activity [1]	Activity [2]	Activity [3]	Activity [4]	other results
PIDERLRTCERLSYP [satpdb14897]	1	1	1	1	
GLFAVIKKVAAVIKKL [compound 4120]					Activity [5]: 1; Activity [6]: 1; Activity [7]: 1
KIKLFKKWPKFLHLAKKF [satpdb14419]					Activity [8]: 0; Activity [9]: 0; Activity [10]: 0
FKCRRWQWRMKKLGAPSITCVR [compound 1352]	1	1	1	1	
ANIKLSVQMKLFKRHLKWKIIVKLNDGRELSLDA [satpdb18078]	1	1	1	1	
ALLHHGLNCAKGVLA [satpdb12694]					Activity [11]: 0; Activity [6]: 0
CENTISGCSRADCLLTHRKQGCQKTCGLC [5WCV NMR - A 1-29]				0	Activity [7]: 0
ILPWKWPWWPWRR [compound 1827]	1	1	1	1	
IDWKKLLDAAKQIL [compound 4438]	1	1	1	1	
MPQLVPFYFMNQLTYGFLLMITLLILFSQFFLPMILRLYVSRLFISKL [6B2Z electron microscopy 3.60,A/L,1-48]					Activity [12]: 0; Activity [7]: 0
RGGRLCYARRRFAVCVGR [satpdb14374]					Activity [8]: 0; Activity [9]: 0; Activity [10]: 0
ALSKALSKALSKALSKALSKALSK [compound 1357]		1	1		Activity [5]: 1
FLGALLGPLMNLLQ [satpdb14038]					Activity [8]: 0; Activity [9]: 0; Activity [10]: 0
GIPCGESCVYIPCLTSAIGCSCKSKVCYRN [satpdb13250]					Activity [11]: 0; Activity [9]: 0
GLFDIVKKVVGTLAGL [compound 4409]	1	1	1	1	
GSKKPVPIIYCNRRTGKCQRM [5XO4 NMR - A 1-21]				0	Activity [7]: 0
VDENAEDTHGLCGEKTCSPAQVCLNNECACTAIRCMIFCPNGFKVDENGCEYPCTCA [3BG4 X-ray 2.50 D 1-57]					Activity [12]: 0; Activity [10]: 0
GLPTCGETCTLGTCYVPDCSCSWPICMKN [compound 4381]	1	1	1	1	
TSPQREATCTSEVSGCPKIYNPVCGTDGITYSNECVLCSENKKRQTPVLIQKSGPC [1TGS X-ray 1.80,I,1-56]					Activity [12]: 0; Activity [10]: 0
GFGMALRLLRRVL [compound 3598]					Activity [5]: 1; Activity [6]: 1; Activity [7]: 1
TEWSACSKTCGMGISTRV [satpdb13253]	1	1	1	1	
VAKCTEESGGKYFVFCCYKPTRICYMNEQKCESTCIGK [satpdb10361]	0				Activity [6]: 0
RLYRKVYGRLYRKVYGRLYRKVYGRLYRKVYGKKK [satpdb11459]					Activity [5]: 0; Activity [9]: 0; Activity [10]: 0
MKVRSSVKKMCDNCKVVRRHGRVLVICSNVKHKQRQG [2ZJR X-ray 2.91,4,1-37]					Activity [12]: 0; Activity [7]: 0
GLLPCAESCVYIPCLTTVIGCSCKSKVCYKN [compound 4423]	1	1	1	1	

Substance	Activity [1]	Activity [2]	Activity [3]	Activity [4]	other results
VKLLVyPLKVKLyP [satpdb13876]					Activity [8]: 0; Activity [9]: 0; Activity [10]: 0
GPWGPCSGSCGPGRRLRRR [satpdb14705]	1	1	1	1	
GFGCPGNQLKCNNHCKSISCRAGYCDAATLWLRCTCTDCNGKK [satpdb11046]	0				Activity [6]: 0
GLLSVLGSVAKHVLPHVVPVIAEHL [compound 4424]	1	1	1	1	
DDTPSSRCGSGGWGPCLPIVDLLCIVHVTVGCSGGFGCCRIG [2JR3 NMR - A 1-42]					Activity [12]: 0; Activity [7]: 0
KFCEKPSGTWSGVCGNSGACKDQCIRLEGAKHGSCNYKLPAHRCICYYEC [satpdb13047]					Activity [11]: 0; Activity [9]: 0
GLFDVIKKVASVIKKL [compound 4084]					Activity [5]: 1; Activity [6]: 1; Activity [7]: 1
KAFDITYVRLKF [satpdb20842]	1	1	1	1	
GVPICGETCTLGTCYTAGCSCSWPVCTRN [compound 4421]	1	1	1	1	
MKVRVDADACIGCGVCENLCPDVFQLGDDGKAKVLQPETDLPCAKDAADSCPTGAISVEE [1VJW X-ray 1.75 A 1-60]					Activity [12]: 0; Activity [10]: 0
ITMQGIQGQKIRMIMF [satpdb23309]	1	1	1	1	
YGRKKRRQRRRREADFFWSLCTADMS [compound 3718]	1	1	1	1	
FLPMLAGLAASMVPKLVCLITKKC [satpdb11064]	0				Activity [6]: 0
ALLGDFFRKSKEKIGKEFKRIVQRIKDFLRNLVPRTES [satpdb12863]					Activity [11]: 0; Activity [9]: 0
SFGLCRLRRGFCARGRCRFPSIPIGRCSRFVQCCRRVW [1UT3 NMR - A 1-38]					Activity [12]: 0; Activity [7]: 0
GAIKDALKGAAKTVAVELLKKAQCKLEKTC [satpdb13113]					Activity [11]: 0; Activity [9]: 0
KKLFKKilkYL [satpdb14386]					Activity [8]: 0; Activity [9]: 0; Activity [10]: 0
FVDLKKIANIINSIF [compound 2851]					Activity [5]: 1; Activity [6]: 1; Activity [7]: 1
MFSPILSLEIILALATLQSVFAQPVICTTVGSAAEGS [satpdb11835]	1	1	1	1	
kWkSFLkTFkSLKkTVLHTLLkAISS [compound 1231]					Activity [5]: 1; Activity [6]: 1; Activity [7]: 1
GLPVCGETCFGGTCNTPGCTCDPWPVCTRN [compound 4427]	1	1	1	1	
PKLlKTFlSKWIG [satpdb12561]					Activity [11]: 0; Activity [6]: 0
KAAKKAWKAWKKAAKAAWKKAA [compound 4477]	1	1	1	1	
MERSTRELCLNFTVVLITVILIWLLVRSYQY [3W5A X-ray 3.01 C 1-31]				0	Activity [7]: 0
MKFYTIKLPKFLGGIVRAMLGSFRKD [2MVH NMR - A 1-26]				0	Activity [7]: 0
